In brackets after ≈: the same amount, converted by molar mass. Where two headings read alike, the source gives them in different places.
How the values were obtained:
[1] = Particle size distribution (Malvern Mastersizer S); type: physicochemical; details: for D[4,3]: mean diameter by volume; for DMVS (μm): Table 4, surface area mean diameter (D[3,2])
Description: The particle size for nepafenac was measured using a Malvern Mastersizer S particle size analyzer with an MS1-Small Volume Sample Dispersion Unit stirred cell. A 300RF mm lens and a beam length of 2.4 mm were used. Samples for analysis were prepared by wetting a weighed amount of nepafenac (approximately 50 mg) with 0.5 mL of a 1% solution of Igepal CA-630 in deionized water, and dispersing in 20 mL of deionized water. After sonication for 1 minute, the suspension was delivered drop-wise to the previously background and corrected measuring cell filled with dispersant (deionized water) until the obscuration reached the desired level. Volume distributions were obtained for three times. After completing the measurements, the sample cell was emptied and cleaned, refilled with suspending medium, and the sampling procedure repeated again. For characterization, the values of D10, D50 and D90 (by volume), D[4,3] (mean diameter by volume) and D[3,2] (mean diameter by surface area to volume, or Sauter diameter) were specifically listed, each one being the mean of the six values available for each characterization parameter.
The notation Dx means that X % of the particles have a diameter less than a specified diameter D. Thus a D90 [or D(v, 0.9)] of 100 μm means that 90% of the particles have a diameter less than 100 μm.

[2] = Optical microscopy: crystal shape and aspect ratio; type: physicochemical; details: for Crystal shape: optical microscopy, 40× magnification; for Aspect ratio: crystal length / width, average of at least 100 crystals
Description: The “aspect ratio” of a crystal is defined as the ratio of its longest dimension to its shortest dimension. As used herein, “aspect ratio” is the quotient of the division of a crystal's length by its width. The aspect ratio of crystals can be obtained by taking micrographs of a batch of crystal (See General Experimental Conditions. Optical Microscopy).
The micrographs were taken at 40× magnification.
The aspect ratio of crystals was obtained from micrographs of a batch of crystal. Micrographs were processed with ImageJ 1.42q software. Length and width of at least 100 representative crystals (i.e., having an area greater than 500 μm^2 for a 40× magnification image) was measured, and the aspect ratio of each crystal was calculated by dividing the crystal length by the crystal width. The average aspect ratio for each batch was determined by dividing the sum of crystal aspect ratios by the number of crystals measured.

[3] = Solubility of nepafenac at reflux temperature in crystallization solvent; type: physicochemical
Description: General procedure: Nepafenac was dissolved under magnetical stirring and at reflux in a solvent (See Table 1). The solution was cooled to room temperature under stirring. The solid was filtered and dried. The different conditions and the obtained results are described in Table 1 below.

[4] = Chargeability observed when handling crystals with a metallic material; type: physicochemical
Description: Drug substances in solid form can suffer electrostatic charging by contact or friction electrification (tribocharging) caused by interactions among particles or between particles and the surfaces that contain them. These interactions can affect formulation, manufacture, powder flow, and packing behaviour. In addition, it has been reported that electrostatic charges are also responsible for problems in blend uniformity. The net positive or negative tendency of dry powders to become charged electrostatically is called chargeability.
There is no standard instrument for the measurement of the chargeability of dry powders (see AAPS PharmSciTech 2006, 7, Article 103). Triboelectric charge is commonly reported on a charge-to-mass basis since net charge and mass can be easily measured. However, triboelectric and induction charging are more closely related to the surface area of a particle rather to volume or mass. Then, it is well known that the surface area of the particles plays a key role in dry powder chargeability, and that therefore the particles having a higher specific surface area can hold a greater charge.

[5] = BET specific surface area; type: physicochemical; details: for Specific Surface Area (BET): N2 adsorption at 77 K; for Sw (m^2/g): Table 4, powder specific surface area
Description: The BET (Brunauer, Emmett and Teller) specific surface area for nepafenac was measured using a Micromeritics™ GEMINI V equipment (GEMINI CONFIRM V2.00 Software™). The sample for analysis was degassed at 30° C. for 10 minutes and at 140° C. for one hour. The determination of the adsorption of N2 at 77 K was measured for relative pressures in the range of 0.02 to 0.2 for a weighed amount of nepafenac (i.e., approximately 0.5 g).

[6] = Sphericity factor calculation; type: physicochemical; details: calculated from Sw, ρ and DMVS
Description: One of the most common ways of expressing the degree of irregularity of the particles is by means of the sphericity factor (ψw), which is generally defined as the ratio between the surface area of a sphere having the same volume as the particle and the surface area of the particle:
Because sphericity factors are not calculated for each particle but for an assembly of particles, they have to be based on an average size. Thus, the sphericity factor will then be given by the following equation: […]
where Sw is the powder specific surface area, ρ is the particle density and DMVS is the surface area mean diameter, also referred to as the mean volume-surface, the Sauter diameter or D[3,2]. The Sauter diameter is defined as the diameter of a sphere that has the same volume/surface area ratio as the particle of interest.
A sphericity factor of 1.0 describes a perfect sphere with the greatest ease of flow (Encapsulated and powdered foods, CRC Press 2005).

[7] = Flowability by Hausner ratio (tapped / bulk density); type: physicochemical; details: micronized crystals
Description: Flowability affects the ease with which the material is handled during processing into a pharmaceutical product. Namely, when flowability is very poor, problems occur with handling and processing during formulating. The flowability of nepafenac can be measured using the Hausner ratio, which is a value calculated by dividing the tapped bulk density of nepafenac by the freely settled bulk density of nepafenac. The freely settled bulk density is calculated by pouring a known weight of material into a measuring cylinder and recording the volume. The tapped density is calculated by tapping the cylinder against a surface for a specified number of times and recording again the new volume. See Henry H. Hausner, “Friction Conditions in a Mass of Metal Powders”, Int. J. Powder Metall. Vol. 3, 1967, pp 7-13.
A low Hausner ratio indicates a high flowability. […]
Measurement of Hausner ratio is well-known in the art and is described, for example, by Mersmann; Crystallization Technology Handbook (A. Mersmann, ed., 2nd Ed., Marcel Dekker). In the present invention, the bulk and tapped densities for each sample of nepafenac were determined using a TP-TD1 tapped densitometer from Pharma Test. The Hausner ratio of the nepafenac sample was calculated by dividing the tapped bulk density by the bulk density.

[8] = Density by glass pycnometer in n-heptane; type: physicochemical; details: for ρ: Table 4, particle density
Description: Density of nepafenac samples was determined at 25° C. using a 50 mL glass pycnometer. […] The density of the nepafenac sample (ρs) can be determined from the known density of n-heptane (ρH: 0.685 g/cm^3), the weight of the pycnometer filled only with n-heptane (WH^0, the weight of the filled pycnometer containing both nepafenac and n-heptane (WS+H), and the weight of nepafenac (WS):
Density of nepafenac samples was determined for three times, being the listed result the mean of the three values available for each sample.

[9] = Solubility statements (water, n-heptane); type: physicochemical; details: n-heptane at the working temperature (25° C.)
[10] = stated as known; cited from earlier work
[11] = Table 3, micronized samples, unit inferred

With `NC(=O)Cc1cccc(C(=O)c2ccccc2)c1N` [Batch 1, 2-amino-3-benzoylbenzeneacetamide] as the compound, how does the D10 [1, 11] read?
Its D10 is 6.1 µm.

And the D50 [1, 11]?
The D50 was 21.4 µm.

And the D90 [1, 11]?
Its D90 is 64.3 µm.

What does the source list for `NC(=O)Cc1cccc(C(=O)c2ccccc2)c1N` [Batch 2, 2-amino-3-benzoylbenzeneacetamide]?
D10 [1, 11]: 4.8 µm; D50 [1, 11]: 19.8 µm; D90 [1, 11]: 66.5 µm

With `NC(=O)Cc1cccc(C(=O)c2ccccc2)c1N` [Batch 3, 2-amino-3-benzoylbenzeneacetamide] as the compound, how does the D10 [1, 11] read?
The D10 was 4.4 µm.

And the D50 [1, 11]?
The D50 was 14.9 µm.

What about the D90 [1, 11] of the same compound?
The D90 was 45.3 µm.

With `NC(=O)Cc1cccc(C(=O)c2ccccc2)c1N` [Comparative Example 1, 2-amino-3-benzoylbenzeneacetamide, reference compound] as the compound, how does the Crystal shape [2] read?
Its Crystal shape is “needle-like shape”.

And the “solubility” value ([3]; in 2-propanol at reflux temperature)?
The value was 21.2 mg/mL (≈ 83.4 mM).

And the Chargeability [4]?
The Chargeability was “high chargeability”.

For `NC(=O)Cc1cccc(C(=O)c2ccccc2)c1N` [Comparative Example 2, 2-amino-3-benzoylbenzeneacetamide, reference compound], which Aspect ratio [2] is on record?
The Aspect ratio was 5.67.

What about the Crystal shape [2] of the same compound?
The Crystal shape was “Needle-like crystals”.

Which Crystal shape [2] does the source give for `NC(=O)Cc1cccc(C(=O)c2ccccc2)c1N` [Comparative Example 3, 2-amino-3-benzoylbenzeneacetamide, reference compound] here?
The Crystal shape was “Needle-like crystals”.

What about the “Specific Surface Area (BET)” value [5] of the same compound?
The value was 0.8256±0.0270 m^2/g.

What about the D10 ([1]; by volume) of the same compound?
Its D10 is 23.6 μm.

What about the D50 ([1]; by volume) of the same compound?
Its D50 is 85.8 μm.

What about the D90 ([1]; by volume) of the same compound?
Its D90 is 491.1 μm.

And the “D[4,3]” value ([1]; unit not given, in µm (unit assumed))?
Its value is 178.4.

With `NC(=O)Cc1cccc(C(=O)c2ccccc2)c1N` [Example 1, 2-amino-3-benzoylbenzeneacetamide] as the compound, how does the Aspect ratio [2] read?
The Aspect ratio was 3.04.

And the Crystal shape [2]?
Its Crystal shape is “Plate”.

And the solubility ([3]; 2-propanol:water 90:10, organic solvent or mixture, thermodynamic from solid, in 2-propanol:water 90:10 at reflux, read-out: Solubility)?
The solubility was 55.2 mg/mL (≈ 217 mM).

Which Crystal shape [2] does the source give for `NC(=O)Cc1cccc(C(=O)c2ccccc2)c1N` [Example 2, 2-amino-3-benzoylbenzeneacetamide] here?
The Crystal shape was “Plate”.

What about the solubility ([3]; 2-propanol:water 80:20, organic solvent or mixture, thermodynamic from solid, in 2-propanol:water 80:20 at reflux, read-out: Solubility) of the same compound?
Its solubility is 78.6 mg/mL (≈ 309 mM).

With `NC(=O)Cc1cccc(C(=O)c2ccccc2)c1N` [Example 3, 2-amino-3-benzoylbenzeneacetamide] as the compound, how does the Crystal shape [2] read?
The Crystal shape was “Plate”.

And the solubility ([3]; 2-propanol:water 70:30, organic solvent or mixture, thermodynamic from solid, in 2-propanol:water 70:30 at reflux, read-out: Solubility)?
The solubility was 79.6 mg/mL (≈ 313 mM).

Which Crystal shape [2] does the source give for `NC(=O)Cc1cccc(C(=O)c2ccccc2)c1N` [Example 4, 2-amino-3-benzoylbenzeneacetamide] here?
Its Crystal shape is “Plate”.

And the solubility ([3]; 2-propanol:water 60:40, organic solvent or mixture, thermodynamic from solid, in 2-propanol:water 60:40 at reflux, read-out: Solubility)?
The solubility was 32.6 mg/mL (≈ 128 mM).

With `NC(=O)Cc1cccc(C(=O)c2ccccc2)c1N` [Example 5, 2-amino-3-benzoylbenzeneacetamide] as the compound, how does the Crystal shape [2] read?
Its Crystal shape is “plate-like shape”.

What about the Chargeability [4] of the same compound?
Its Chargeability is “Reduced chargeability”.

For `NC(=O)Cc1cccc(C(=O)c2ccccc2)c1N` [Example 6, 2-amino-3-benzoylbenzeneacetamide], which Crystal shape [2] is on record?
Its Crystal shape is “plate-like crystals”.

And the “Specific Surface Area (BET)” value [5]?
The value was 0.7046±0.0272 m^2/g.

What about the D10 ([1]; by volume) of the same compound?
The D10 was 30.5 μm.

What about the D50 ([1]; by volume) of the same compound?
The D50 was 144.9 μm.

And the D90 ([1]; by volume)?
Its D90 is 401.8 μm.

What about the “D[4,3]” value [1] of the same compound?
Its value is 185.0 μm.

For `NC(=O)Cc1cccc(C(=O)c2ccccc2)c1N` [Example 7, 2-amino-3-benzoylbenzeneacetamide, reference compound], which D10 ([1]; by volume) is on record?
The D10 was 1.3 μm.

And the D50 ([1]; by volume)?
Its D50 is 6.1 μm.

What about the D90 ([1]; by volume) of the same compound?
Its D90 is 17.1 μm.

Which “Ψw (sphericity factor)” value [6] does the source give for `NC(=O)Cc1cccc(C(=O)c2ccccc2)c1N` [Example 8, 2-amino-3-benzoylbenzeneacetamide] here?
Its value is 1.0.

What about the “Sw (m^2/g)” value [5] of the same compound?
The value was 1.7686 ± 0.0242 m^2/g.

What about the “DMVS (μm)” value [1] of the same compound?
The value was 2.5 μm.

What about the D10 ([1]; by volume) of the same compound?
Its D10 is 1.2 μm.

And the D50 ([1]; by volume)?
Its D50 is 5.8 μm.

What about the D90 ([1]; by volume) of the same compound?
Its D90 is 18.9 μm.

And the Hausner ratio [7]?
Its Hausner ratio is 1.43.

What about the “ρ” value [8] of the same compound?
The value was 1.33 g/mL.

For `NC(=O)Cc1cccc(C(=O)c2ccccc2)c1N` [Example 10, 2-amino-3-benzoylbenzeneacetamide], which “Ψw (sphericity factor)” value [6] is on record?
The value was 0.82.

And the “Sw (m^2/g)” value [5]?
Its value is 2.0341 ± 0.0074 m^2/g.

And the “DMVS (μm)” value [1]?
Its value is 2.7 μm.

What about the D10 ([1]; by volume) of the same compound?
Its D10 is 2.2 μm.

And the D50 ([1]; by volume)?
The D50 was 12.1 μm.

What about the D90 ([1]; by volume) of the same compound?
Its D90 is 27.5 μm.

What about the “D[3,2]” value ([1]; mean diameter by surface area to volume (Sauter diameter)) of the same compound?
Its value is 2.7 μm.

And the “ρ” value [8]?
The value was 1.33 g/mL.

Which results are given for `NC(=O)Cc1cccc(C(=O)c2ccccc2)c1N` [nepafenac, 2-amino-3-benzoylbenzeneacetamide, reference compound]?
Solubility in n-heptane [9]: practically insoluble; Solubility in water [10]: practically insoluble; solubility ([3]; 2-propanol, organic solvent or mixture, thermodynamic from solid, in 2-propanol at reflux temperature, read-out: Solubility): 21 mg/mL (≈ 82.6 mM); solubility ([3]; mixtures of 2-propanol with up to 40% of water, organic solvent or mixture, thermodynamic from solid, in mixtures of 2-propanol with up to 40% of water at reflux temperature, read-out: Solubility): 30 to 80 mg/mL (≈ 118 to 315 mM); solubility ([3]; water, 100 °C, water, thermodynamic from solid, in water at reflux temperature, read-out: Solubility): 0.7 mg/mL (≈ 2.75 mM); True density ([8]; experimental): 1.33 g/mL

Source: US20100234469A1, “New Crystals Of A Benzoylbenzeneacetamide Derivative” (Medichem, S.A., priority 2009, published 2010)
